The nature of data set [1]: Solubility in SIF buffer system. The format is physicochemical.
Data set [2] can be described thus: Permeability in Caco-2 assay at 10E-6. The format is ADME. As to conditions: human, read-out: Activity. (In general: Caco-2 cells form a polarised layer with tight junctions and transporters.)
Data set [3] can be described thus: Solubility in SIBLM buffer system. Type of data set: physicochemical.
The next data set relates to HUVEC. In words: Inhibitory activity against VLA-4 mediated adhesion to human vein endothelial cells. Type of data set: functional, cell-based.
Data set [4] is described as follows: Solubility in SGF buffer system. Type of data set: physicochemical.
A short description of data set [5]: Stability in rat plasma was determined. The format is ADME.
Data set [6] can be described thus: Log Doctanol value by HPLC peak area analysis of aqueous and octanol phases at pH 4.5-6.5. The format is physicochemical.
A short description of data set [7]: Log Doctanol value by HPLC peak area analysis of aqueous and octanol phases at pH 6.5. Type of data set: physicochemical. As to conditions: octanol/aqueous phase, read-out: LogD6.5.
Data set [8] is described as follows: Solubility in SIF buffer system; ND= not detectable. The format is physicochemical. As to conditions: simulated gi fluid.
Data set [9] can be described thus: Log Doctanol value by HPLC peak area analysis of aqueous and octanol phases at pH 4.5. Type of data set: physicochemical. The conditions noted are these: octanol/aqueous phase.
Data set [10] in a line: Solubility in SGF buffer system; ND=not detectable. Type of data set: physicochemical. As to conditions: simulated gi fluid.
[11] abbreviates: octanol/aqueous phase, read-out: logD.

The text below walks through data of ChEMBL document CHEMBL1148230, “Synthesis, characterization and evaluation of pro-drugs of VLA-4 antagonists” (Bioorg Med Chem Lett, 2004).

Converted amounts (≈) assume the structure as drawn.

The term solubility denotes how much of the substance goes into solution per volume. A higher solubility goes with much dissolved substance. Usually IC50 stands for the concentration needed to halve the response being measured. Read a high IC50 as lower potency. Turning to `CN(C)C(=O)Oc1ccc(C[C@H](NC(=O)[C@H]2N(S(=O)(=O)c3ccn(C)n3)CSC2(C)C)C(=O)O)cc1`, the solubility in [1] is more than 20000 µg/mL; in [3], 20000 µg/mL (≈ 37100 µM); in [4], 3300 µg/mL (≈ 6120 µM). Further, in data set [2], the Papp was more than 0.07 ×10⁻⁶ cm/s. Half-maximal inhibition with HUVEC (IC50) required 6 nM.

By half-life is commonly meant how long it takes for the measured level to halve. Low readings indicate rapid decline, high ones slow decline. Regarding `COCCOCCOC(=O)[C@H](Cc1ccc(OC(=O)N(C)C)cc1)NC(=O)[C@H]1N(S(=O)(=O)c2ccn(C)n2)CSC1(C)C`, the values for the solubility in data set [1], in data set [3] and in data set [4] were 2400 µg/mL (≈ 3740 µM), 4650 µg/mL (≈ 7250 µM) and 2830 µg/mL (≈ 4410 µM), respectively. Further, the Papp in data set [2] turned out to be 2.03 ×10⁻⁶ cm/s. This compound yielded a half-life in [5] of 13.1 min. For the same compound, the results for the logD in data set [6] (setting [11]) and in [7] were 1.41 and 1.42, respectively.

In the case of `CN(C)C(=O)Oc1ccc(C[C@H](NC(=O)[C@H]2N(S(=O)(=O)c3ccn(C)n3)CSC2(C)C)C(=O)OCOC(=O)C(C)(C)C)cc1`, the Papp in [2] amounted to 2.49 ×10⁻⁶ cm/s. Moreover, the values for the solubility in data set [3], in data set [8] and in [4] were 119 µg/mL (≈ 182 µM), “Not detectable” and 13 µg/mL (≈ 19.9 µM), respectively. In addition, in data set [5], the half-life was 2.82 min. The results for the logD in data set [7] and in [9] were 3.17 and 3.1, respectively.

In the case of `CCOC(=O)[C@H](Cc1ccc(OC(=O)N(C)C)cc1)NC(=O)[C@H]1N(S(=O)(=O)c2ccn(C)n2)CSC1(C)C`, the solubility amounted to 341 µg/mL (≈ 601 µM) in [1], 1180 µg/mL (≈ 2080 µM) in data set [3] and 629 µg/mL (≈ 1110 µM) in data set [4]. Further, the Papp in [2] is 4.24 ×10⁻⁶ cm/s. The compound also registered a half-life in [5] of 8.08 min. The logD turned out to be 2 in [7] and 2.27 in data set [9].

On to `CC(C)OC(=O)[C@H](Cc1ccc(OC(=O)N(C)C)cc1)NC(=O)[C@H]1N(S(=O)(=O)c2ccn(C)n2)CSC1(C)C`, for which the solubility in data set [1] was 45.5 µg/mL (≈ 78.2 µM); in data set [3], 158 µg/mL (≈ 272 µM); in [4] it was 94.9 µg/mL (≈ 163 µM). Also, in data set [2], the Papp is 6.83 ×10⁻⁶ cm/s. In [5], this compound came in with a half-life of 10.9 min. In addition, the logD was found to be 2.47 in data set [7] and 2.45 in data set [9].

`CN(C)C(=O)Oc1ccc(C[C@H](NC(=O)[C@H]2N(S(=O)(=O)c3ccn(C)n3)CSC2(C)C)C(=O)OCC(C)(C)C)cc1`: in [2], the Papp was 4.52 ×10⁻⁶ cm/s. Moreover, the solubility in [3] was 6.97 µg/mL (≈ 11.4 µM); in [8], “Not detectable”; in data set [4], 0.334 µg/mL (≈ 0.548 µM). Also, the half-life in data set [5] is 53.4 min. Further, the logD turned out to be 3.43 in data set [6] (setting [11]) and 3.42 in data set [6] (octanol/water).

Turning to `CN(C)C(=O)Oc1ccc(C[C@H](NC(=O)[C@H]2N(S(=O)(=O)c3ccn(C)n3)CSC2(C)C)C(=O)OCCOc2ccccc2)cc1`, the values for the solubility in [1], in data set [3] and in [10] were 0.506 µg/mL (≈ 0.767 µM), 24 µg/mL (≈ 36.4 µM) and “Not detectable”, respectively. Further, the Papp in data set [2] came to 7.58 ×10⁻⁶ cm/s. In addition, the half-life in [5] came to 1.6 min. For the same compound, the logD turned out to be 3.34 in [7] and 3.21 in data set [9].
